Data as given in ChEMBL document CHEMBL1201862, “PubChem BioAssay data set” (2004).
Activity calls are given as the source filed them.

Columns and labels:
Beta-galactosidase = Beta-galactosidase (Escherichia coli, UniProt Q8VNN2); test: detection-enzyme interference by beta-gal modulators – biochemical, E. coli enzyme, set 3, artefact control for CCR6 antagonist project, dose response (AID 504712); assay type: functional
[1] = HEK-293T viability loss after treatment – luminescence, T-cell screen hits, cytotoxicity control for TCR NF-kB inhibitor project, dose response (AID 489026); assay type: functional, cell-based;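 further: cells exposed to compound about 14 hours before the viability readout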
[2] = molecular target: DNA dC->dU-editing enzyme APOBEC-3A (Homo sapiens, UniProt P31941); test: Dose Response confirmation of small molecule APOBEC3A DNA Deaminase Inhibitors via a fluorescence-based single-stranded DNA deaminase assay. [Related pubchem assays (depositor defined):AID493011, AID493024]; assay type: functional
Sequence of DNA dC->dU-editing enzyme APOBEC-3A (P31941 whole entry): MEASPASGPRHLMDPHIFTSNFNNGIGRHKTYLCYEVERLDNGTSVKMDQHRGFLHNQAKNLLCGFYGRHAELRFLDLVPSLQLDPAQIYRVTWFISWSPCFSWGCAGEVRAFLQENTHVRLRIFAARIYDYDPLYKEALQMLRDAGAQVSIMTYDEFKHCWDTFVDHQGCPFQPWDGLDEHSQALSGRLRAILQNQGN

[3] = molecular target: DNA dC->dU-editing enzyme APOBEC-3G (Homo sapiens, UniProt Q9HC16); assay type: functional;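 further: Dose-response counterscreen measuring inhibition of APOBEC3G DNA deaminase activity, run while confirming APOBEC3A inhibitors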
Sequence of DNA dC->dU-editing enzyme APOBEC-3G (Q9HC16 whole entry): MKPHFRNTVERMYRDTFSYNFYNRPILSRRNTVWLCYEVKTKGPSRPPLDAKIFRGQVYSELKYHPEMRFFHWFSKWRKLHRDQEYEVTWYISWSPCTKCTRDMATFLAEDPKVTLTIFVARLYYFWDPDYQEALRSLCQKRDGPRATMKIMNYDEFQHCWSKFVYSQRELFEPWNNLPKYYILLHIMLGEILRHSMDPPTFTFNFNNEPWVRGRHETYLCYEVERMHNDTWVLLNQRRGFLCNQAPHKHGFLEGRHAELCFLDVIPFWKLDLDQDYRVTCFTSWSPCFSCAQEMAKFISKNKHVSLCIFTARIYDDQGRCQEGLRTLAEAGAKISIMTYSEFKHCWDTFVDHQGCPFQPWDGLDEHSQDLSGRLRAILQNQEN

Cytochrome P450 2D6 = Cytochrome P450 2D6 (Homo sapiens, UniProt P10635);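 further: CYP2D6 member of a cytochrome P450 panel assay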
Sequence of Cytochrome P450 2D6 (P10635 whole entry, the tested form may be a part): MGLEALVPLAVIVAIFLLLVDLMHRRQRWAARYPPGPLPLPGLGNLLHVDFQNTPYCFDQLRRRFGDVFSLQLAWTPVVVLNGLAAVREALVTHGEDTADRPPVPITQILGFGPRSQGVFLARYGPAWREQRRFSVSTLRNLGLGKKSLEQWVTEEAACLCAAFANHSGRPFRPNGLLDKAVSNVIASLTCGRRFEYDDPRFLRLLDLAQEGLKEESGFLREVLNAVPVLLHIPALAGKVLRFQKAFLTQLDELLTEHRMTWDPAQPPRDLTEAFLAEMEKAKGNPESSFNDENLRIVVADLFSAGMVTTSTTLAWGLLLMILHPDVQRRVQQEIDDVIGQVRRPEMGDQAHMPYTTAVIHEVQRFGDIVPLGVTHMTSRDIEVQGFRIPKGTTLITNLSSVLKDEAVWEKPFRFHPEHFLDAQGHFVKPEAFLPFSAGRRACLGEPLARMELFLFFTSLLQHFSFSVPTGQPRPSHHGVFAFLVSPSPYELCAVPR

[4] = molecular target: T1, Carboxy-terminal domain RNA polymerase II polypeptide A small phosphatase 1 (Homo sapiens, UniProt Q9GZU7); test: CTDSP1 inhibitors, concentration-response, biochemical, absorbance readout, ultra-high-throughput screen actives (AID 540297); assay type: functional
T1 sequence (Q9GZU7 whole entry): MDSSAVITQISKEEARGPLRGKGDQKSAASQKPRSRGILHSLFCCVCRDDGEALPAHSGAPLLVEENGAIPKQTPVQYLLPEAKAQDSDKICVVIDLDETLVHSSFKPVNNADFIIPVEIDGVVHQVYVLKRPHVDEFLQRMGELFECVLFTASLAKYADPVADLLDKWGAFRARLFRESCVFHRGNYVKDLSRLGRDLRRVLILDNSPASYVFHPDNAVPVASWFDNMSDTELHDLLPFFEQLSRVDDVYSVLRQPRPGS

[5] = molecular target: Voltage-gated inwardly rectifying potassium channel KCNH2 (Homo sapiens, UniProt Q12809); settings: Potency;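 further: confirmatory quantitative high-throughput screen measuring inhibition of hERG channel activity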
Sequence of Voltage-gated inwardly rectifying potassium channel KCNH2 (Q12809 whole entry): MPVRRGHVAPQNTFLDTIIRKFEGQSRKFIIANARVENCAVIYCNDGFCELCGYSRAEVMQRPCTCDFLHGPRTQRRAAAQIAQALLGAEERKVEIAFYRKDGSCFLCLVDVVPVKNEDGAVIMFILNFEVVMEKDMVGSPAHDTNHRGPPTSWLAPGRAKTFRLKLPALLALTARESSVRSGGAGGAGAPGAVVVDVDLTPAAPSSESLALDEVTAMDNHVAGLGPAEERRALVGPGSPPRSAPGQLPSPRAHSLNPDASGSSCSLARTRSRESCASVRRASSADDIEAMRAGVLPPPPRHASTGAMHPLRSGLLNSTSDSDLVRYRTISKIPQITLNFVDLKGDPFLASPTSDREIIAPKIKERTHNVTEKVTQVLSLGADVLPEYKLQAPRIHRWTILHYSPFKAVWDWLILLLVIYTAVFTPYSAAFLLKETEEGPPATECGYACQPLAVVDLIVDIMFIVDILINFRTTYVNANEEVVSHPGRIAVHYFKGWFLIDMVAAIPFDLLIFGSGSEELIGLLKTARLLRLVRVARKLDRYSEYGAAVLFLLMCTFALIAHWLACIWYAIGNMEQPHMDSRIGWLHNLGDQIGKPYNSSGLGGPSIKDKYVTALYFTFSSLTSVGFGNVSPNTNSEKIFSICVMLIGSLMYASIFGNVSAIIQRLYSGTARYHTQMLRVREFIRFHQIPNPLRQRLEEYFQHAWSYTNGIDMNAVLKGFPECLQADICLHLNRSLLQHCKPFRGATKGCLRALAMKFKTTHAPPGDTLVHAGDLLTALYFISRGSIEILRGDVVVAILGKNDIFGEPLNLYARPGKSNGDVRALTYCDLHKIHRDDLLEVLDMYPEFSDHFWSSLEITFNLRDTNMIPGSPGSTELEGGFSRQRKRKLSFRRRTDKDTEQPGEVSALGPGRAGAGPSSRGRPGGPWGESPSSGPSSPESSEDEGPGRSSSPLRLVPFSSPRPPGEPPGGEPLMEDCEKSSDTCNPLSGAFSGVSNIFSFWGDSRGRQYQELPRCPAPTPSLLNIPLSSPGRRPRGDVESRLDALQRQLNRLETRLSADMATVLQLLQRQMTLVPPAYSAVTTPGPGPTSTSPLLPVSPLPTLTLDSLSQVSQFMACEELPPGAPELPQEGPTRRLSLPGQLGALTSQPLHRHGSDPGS

[6] = Trypanosoma cruzi growth suppression in host cells – NIH3T3 host cells, beta-gal luminescence, confirmation (AID 2044); assay type: functional, cell-based;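 further: intracellular parasites grown in NIH/3T3 mouse fibroblasts as host cells; luminescent beta-galactosidase reporter signal from transgenic T. cruzi replicating inside host cells; inhibitors lower the luminescence signal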
[7] = molecular target: T2, Microphthalmia-associated transcription factor (Homo sapiens, UniProt O75030); test: reducers of TRPM1 reporter luminescence, concentration series – cell-based, SK-MEL-5, cherry-picked, set 3, MITF inhibitor project, dose response (AID 493073); assay type: functional;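 further: SK-MEL-5 melanoma cells with luciferase driven by the MITF target TRPM1 promoter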
T2 sequence (O75030 whole entry): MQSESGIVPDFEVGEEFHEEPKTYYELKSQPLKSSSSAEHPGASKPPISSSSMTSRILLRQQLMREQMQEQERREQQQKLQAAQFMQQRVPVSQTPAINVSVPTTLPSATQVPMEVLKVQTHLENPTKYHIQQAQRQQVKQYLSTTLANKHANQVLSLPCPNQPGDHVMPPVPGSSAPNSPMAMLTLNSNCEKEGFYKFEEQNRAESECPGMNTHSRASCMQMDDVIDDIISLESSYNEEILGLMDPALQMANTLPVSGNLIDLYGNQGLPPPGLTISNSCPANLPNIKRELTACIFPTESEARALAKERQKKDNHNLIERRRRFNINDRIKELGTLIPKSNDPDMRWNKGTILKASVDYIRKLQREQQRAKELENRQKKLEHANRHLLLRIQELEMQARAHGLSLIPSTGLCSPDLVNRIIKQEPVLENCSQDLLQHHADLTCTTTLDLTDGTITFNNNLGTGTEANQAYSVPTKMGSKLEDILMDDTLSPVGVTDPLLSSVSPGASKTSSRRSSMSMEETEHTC

[8] = NIH3T3 cell viability loss – ATP luminescence, mouse fibroblasts, counter-screen, dose response (AID 2010); assay type: functional, cell-based;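 further: cells exposed to compound for about 90 hours before reading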
Nonstructural protein 1 = Nonstructural protein 1 (Influenza A virus, UniProt Q194T2); assay type: functional, Influenza A virus (A/California/07/2009(H1N1))
Sequence of Nonstructural protein 1 (Q194T2 whole entry): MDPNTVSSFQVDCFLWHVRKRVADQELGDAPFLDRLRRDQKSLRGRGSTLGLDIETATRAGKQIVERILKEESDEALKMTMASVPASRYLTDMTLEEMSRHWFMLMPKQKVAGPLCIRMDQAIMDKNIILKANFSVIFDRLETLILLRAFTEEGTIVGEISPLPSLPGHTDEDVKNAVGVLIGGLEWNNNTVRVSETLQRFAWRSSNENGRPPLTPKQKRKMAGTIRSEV

SUMO-activating enzyme [9] = molecular target: T3, SUMO-activating enzyme (Homo sapiens, UniProt Q9UBT2); test: blockers of SAE1/SAE2–UBC9 SUMO transfer – biochemical, HTRF, uHTS, primary screen (AID 2006); assay type: protein-complex assay
T3 sequence (Q9UBE0 whole entry): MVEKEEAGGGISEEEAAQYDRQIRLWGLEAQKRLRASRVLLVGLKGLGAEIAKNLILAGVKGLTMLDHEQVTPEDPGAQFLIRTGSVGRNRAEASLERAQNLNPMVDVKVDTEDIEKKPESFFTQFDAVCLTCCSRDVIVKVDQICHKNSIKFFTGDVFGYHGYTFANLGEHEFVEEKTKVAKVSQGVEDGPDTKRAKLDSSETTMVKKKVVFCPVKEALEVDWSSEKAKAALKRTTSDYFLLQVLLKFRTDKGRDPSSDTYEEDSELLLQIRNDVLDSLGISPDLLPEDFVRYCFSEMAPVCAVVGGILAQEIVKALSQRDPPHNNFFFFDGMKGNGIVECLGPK
T3 sequence (Q9UBT2 whole entry): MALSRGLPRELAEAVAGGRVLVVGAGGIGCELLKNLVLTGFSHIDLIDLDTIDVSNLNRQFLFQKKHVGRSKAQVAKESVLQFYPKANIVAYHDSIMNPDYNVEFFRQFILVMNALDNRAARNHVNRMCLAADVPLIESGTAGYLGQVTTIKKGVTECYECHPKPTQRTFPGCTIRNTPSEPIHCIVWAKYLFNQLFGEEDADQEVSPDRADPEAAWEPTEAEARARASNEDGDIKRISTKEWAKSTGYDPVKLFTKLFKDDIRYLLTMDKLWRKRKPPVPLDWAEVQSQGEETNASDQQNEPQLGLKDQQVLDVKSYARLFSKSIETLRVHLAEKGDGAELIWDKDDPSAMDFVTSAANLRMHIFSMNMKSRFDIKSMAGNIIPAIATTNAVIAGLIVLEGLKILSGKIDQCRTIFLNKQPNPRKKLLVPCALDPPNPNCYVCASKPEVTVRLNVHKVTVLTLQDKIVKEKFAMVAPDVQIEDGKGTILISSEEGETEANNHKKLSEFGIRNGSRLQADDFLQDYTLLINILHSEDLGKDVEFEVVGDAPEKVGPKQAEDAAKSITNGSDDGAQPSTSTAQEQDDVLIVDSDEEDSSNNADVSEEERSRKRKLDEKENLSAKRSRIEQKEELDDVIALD

SUMO-activating enzyme [10] = molecular target: T3, SUMO-activating enzyme; test: blockers of UBC9-mediated SUMO conjugation – biochemical, AlphaScreen, SUMOylation inhibitor project, confirmation (AID 2018); assay type: functional
Vero [11] = test: mammalian cell viability reduction – secondary assay, cytotoxicity control for West Nile virus antiviral project, dose response (AID 1650); assay type: functional; settings: Chlorocebus sabaeus
[12] = Luminescence Cell-Based Dose Retest to Confirm Inhibitors of Cancer Stem Cells. [Related pubchem assays (depositor defined):AID2717, AID2721]; assay type: functional; settings: Homo sapiens
[13] = blockers of HIV-1 ZM109 envelope-driven cell-cell fusion – HeLa effector, CEM target cells, luciferase, cherry-pick, dose response (AID 652058); assay type: functional, cell-based;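 further: luciferase signal from HIV-1 Env mediated cell-cell fusion of effector and target cells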
Cytochrome P450 1A2 = molecular target: T4, Cytochrome P450 1A2 (Homo sapiens, UniProt P05177);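 further: PubChem cytochrome P450 panel assay, CYP1A2 panel member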
T4 sequence (P05177 whole entry): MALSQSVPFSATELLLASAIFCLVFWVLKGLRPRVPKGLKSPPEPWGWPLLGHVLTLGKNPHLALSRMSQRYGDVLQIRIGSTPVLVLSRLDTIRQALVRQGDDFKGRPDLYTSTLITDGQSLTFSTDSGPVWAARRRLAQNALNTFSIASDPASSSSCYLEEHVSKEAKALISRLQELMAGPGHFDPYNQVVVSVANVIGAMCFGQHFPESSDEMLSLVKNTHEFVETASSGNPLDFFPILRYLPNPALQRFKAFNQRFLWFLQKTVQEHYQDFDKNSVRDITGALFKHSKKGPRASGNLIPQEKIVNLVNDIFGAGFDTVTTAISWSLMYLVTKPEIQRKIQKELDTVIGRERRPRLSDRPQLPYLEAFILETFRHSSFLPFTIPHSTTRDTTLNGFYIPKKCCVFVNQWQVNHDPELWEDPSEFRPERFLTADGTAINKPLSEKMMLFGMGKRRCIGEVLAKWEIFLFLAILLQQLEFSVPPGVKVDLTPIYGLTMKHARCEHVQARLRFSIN

[14] = blockers of HIV-1 envelope-mediated cell-cell fusion – cherry-pick, dose response (AID 652057); assay type: functional, cell-based
[15] = HIV-1 AD8 envelope cell-cell fusion blockers – cherry-pick, dose response (AID 652062); assay type: functional, cell-based;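 further: luciferase signal from cell-cell fusion driven by HIV-1 clade B AD8 Env; potency is for inhibitors of fusion seen as a drop in luminescence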
[16] = off-target signal loss in HeLa-CEM21 co-culture – HeLa F-luc CTL cells, cherry-picked, counter-screen for HIV-1 Env fusion inhibitor project, dose response (AID 652040); assay type: functional, cell-based;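 further: potency for signal decrease marking cytotoxic or nonspecific inhibition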
[17] = test system: Streptococcus sp. 'group A'; test: Streptococcus pyogenes SK(-)GAS viability under kanamycin – luminescence, BacTiterGlo, confirmation, counter-screen for streptokinase expression inhibitor project, dose response (AID 1900); assay type: functional, organism-based
Vero [18] = test: viability of Vero cells under compound – cytotoxicity control for flavivirus capping enzyme inhibitors (AID 588742); assay type: functional; settings: Chlorocebus sabaeus
Streptococcus = test: GAS UMAA2166 growth inhibition – luminescence, BacTiterGlo, counter-screen for streptokinase expression inhibitor project, dose response (AID 1915); assay type: functional, organism-based;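 further: potency for reduction of bacterial viability or growth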
Genome polyprotein = Genome polyprotein (dengue virus type 2, UniProt P29990); test: flavivirus cap methylation enzyme inhibition – biochemical, confirmation dose response, primary screen (AID 588689); assay type: functional
Streptokinase A = molecular target: T5, Streptokinase A (Streptococcus pyogenes serotype M1, UniProt P10520); test: viability-normalized secreted streptokinase activity reduction – plasminogen activation absorbance, OD405, dose response (AID 1914); assay type: functional, Streptococcus pyogenes M1 GAS;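 further: secreted streptokinase activity via plasminogen activation per viability signal from cell pellet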
T5 sequence (P10520 whole entry): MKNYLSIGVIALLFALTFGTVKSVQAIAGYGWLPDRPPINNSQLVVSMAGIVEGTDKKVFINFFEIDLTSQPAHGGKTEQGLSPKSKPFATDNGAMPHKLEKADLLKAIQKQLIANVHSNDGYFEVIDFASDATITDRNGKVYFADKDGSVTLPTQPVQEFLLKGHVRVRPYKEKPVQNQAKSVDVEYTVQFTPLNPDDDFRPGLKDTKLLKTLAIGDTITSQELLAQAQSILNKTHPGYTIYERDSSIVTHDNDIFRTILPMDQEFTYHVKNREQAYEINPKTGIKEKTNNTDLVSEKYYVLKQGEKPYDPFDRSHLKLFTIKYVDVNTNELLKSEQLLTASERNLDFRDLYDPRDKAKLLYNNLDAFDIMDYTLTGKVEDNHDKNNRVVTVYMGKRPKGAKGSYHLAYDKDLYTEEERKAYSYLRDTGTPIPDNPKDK

Cytochrome P450 2C9 = Cytochrome P450 2C9 (Homo sapiens, UniProt P11712)
Cytochrome P450 3A4 = Cytochrome P450 3A4 (Homo sapiens, UniProt P08684);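 further: CYP3A4 tested as one member of a cytochrome P450 panel screen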
Sequence of Cytochrome P450 3A4 (P08684 whole entry): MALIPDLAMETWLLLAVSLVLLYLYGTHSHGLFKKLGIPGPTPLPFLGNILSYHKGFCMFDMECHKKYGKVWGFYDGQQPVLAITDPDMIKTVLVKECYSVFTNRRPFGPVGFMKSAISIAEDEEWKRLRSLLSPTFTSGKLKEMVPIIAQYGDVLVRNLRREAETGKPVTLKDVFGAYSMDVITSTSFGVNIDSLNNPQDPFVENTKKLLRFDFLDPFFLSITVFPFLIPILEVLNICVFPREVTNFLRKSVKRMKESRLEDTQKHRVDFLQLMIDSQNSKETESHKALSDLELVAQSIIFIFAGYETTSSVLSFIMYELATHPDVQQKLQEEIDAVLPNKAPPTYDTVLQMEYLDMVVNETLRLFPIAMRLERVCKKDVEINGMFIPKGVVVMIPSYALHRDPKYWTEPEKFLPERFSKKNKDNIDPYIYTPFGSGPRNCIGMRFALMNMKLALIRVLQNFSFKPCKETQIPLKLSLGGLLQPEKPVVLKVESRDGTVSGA

[19] = molecular target: Peroxisome proliferator-activated receptor gamma/Nuclear receptor coactivator 3 (Homo sapiens, UniProt P37231); test: TR-FRET dose response biochemical High Throughput Screening assay for agonists of the steroid receptor coactivator 3 (SRC-3) recruitment by the peroxisome proliferator-activated receptor gamma (PPAR gamma): non-selective agonists. [Related pubchem assays: 1301 (Confirmation screen.), 1048 (Primary screen.)]; assay type: functional
[20] = molecular target: Peroxisome proliferator-activated receptor gamma/Nuclear receptor coactivator 2 (Homo sapiens, UniProt P37231); test: TR-FRET dose response biochemical High Throughput Screening assay for agonists of the steroid receptor coactivator 2 (SRC-2) recruitment by the peroxisome proliferator-activated receptor gamma (PPAR gamma): non-selective agonists. [Related pubchem assays: 1297, 1032 ]; assay type: functional
[21] = molecular target: Peroxisome proliferator-activated receptor gamma/Nuclear receptor coactivator 1 (Homo sapiens, UniProt P37231); test: TR-FRET dose response biochemical High Throughput Screening assay for agonists of the steroid receptor coactivator 1 (SRC-1) recruitment by the peroxisome proliferator-activated receptor gamma (PPAR gamma): non-selective agonists. [Related pubchem assays (depositor defined):AID1300, AID1808, AID504735, AID631]; assay type: protein assay
[22] = molecular target: Induced myeloid leukemia cell differentiation protein Mcl-1 (Homo sapiens, UniProt Q07820); assay type: functional

Sequence of Beta-galactosidase (Q8VNN2 whole entry): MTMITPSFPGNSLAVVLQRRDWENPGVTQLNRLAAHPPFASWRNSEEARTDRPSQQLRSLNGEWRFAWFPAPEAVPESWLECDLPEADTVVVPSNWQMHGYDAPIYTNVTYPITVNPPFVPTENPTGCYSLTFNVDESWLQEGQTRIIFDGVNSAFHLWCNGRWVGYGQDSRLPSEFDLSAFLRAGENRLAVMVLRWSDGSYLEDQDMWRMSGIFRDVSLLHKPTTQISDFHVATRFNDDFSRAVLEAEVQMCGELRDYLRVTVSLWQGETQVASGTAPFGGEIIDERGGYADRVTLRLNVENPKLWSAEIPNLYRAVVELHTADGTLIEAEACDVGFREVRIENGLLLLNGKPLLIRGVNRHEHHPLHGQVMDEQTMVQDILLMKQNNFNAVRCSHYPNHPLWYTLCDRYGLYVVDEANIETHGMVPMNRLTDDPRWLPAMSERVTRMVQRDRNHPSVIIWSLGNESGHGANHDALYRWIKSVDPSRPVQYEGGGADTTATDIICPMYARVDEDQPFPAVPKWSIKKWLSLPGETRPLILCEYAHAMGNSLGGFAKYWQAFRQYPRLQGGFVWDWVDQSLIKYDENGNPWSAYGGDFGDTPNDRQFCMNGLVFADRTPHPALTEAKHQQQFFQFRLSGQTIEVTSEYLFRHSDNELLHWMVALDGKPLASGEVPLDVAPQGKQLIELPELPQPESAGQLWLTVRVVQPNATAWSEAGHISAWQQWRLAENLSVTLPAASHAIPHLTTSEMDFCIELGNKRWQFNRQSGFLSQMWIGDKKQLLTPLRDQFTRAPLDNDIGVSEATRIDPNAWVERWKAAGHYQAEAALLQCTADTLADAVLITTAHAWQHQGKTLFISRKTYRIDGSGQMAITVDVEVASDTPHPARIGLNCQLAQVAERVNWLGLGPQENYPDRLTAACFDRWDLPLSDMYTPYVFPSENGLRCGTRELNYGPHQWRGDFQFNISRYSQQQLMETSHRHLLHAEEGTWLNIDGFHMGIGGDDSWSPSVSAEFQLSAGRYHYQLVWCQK

O=C(NC(=S)N(CCc1ccccc1)CCc1ccccc1)c1ccco1
IC50 (Beta-galactosidase): > 66.6 µM (inactive)

O=C(Nc1ccc(S(=O)(=O)N2CCCCC2)cc1)c1ccc(CN2CCOCC2)cc1
IC50 [1]: 27.2 µM (inactive)

C[N+]1(CC(=O)OCCCc2ccccc2)CCOCC1
IC50 [2]: 1.27 µM (active)
IC50 [3]: 1.93 µM (active)
AC50 (Cytochrome P450 2D6): 12.6 µM (inconclusive)
IC50 [4]: 6.39 µM (active)

C/C=C1/C(=O)C[C@H]2[C@@H]3CCC4=CC(=O)CC[C@]4(C)[C@H]3CC[C@]12C [E-GUGGULSTERONE]
AC50 [5]: 17.8 µM (inconclusive)

CN(Cc1ccccc1)C1=CC(=[N+]2CCCC2)CC(C)(C)C1
EC50 [6]: 0.171 µM (active)
AC50 [7]: 1.55 µM (active)
EC50 [8]: > 60 µM (not active)
IC50 [1]: > 80 µM (inactive)

CCCCN(C(=O)c1cnccn1)c1c(N)n(CCC)c(=O)[nH]c1=O
IC50 [2]: 13.7 µM (active)
IC50 [3]: 15.5 µM (active)

Brc1ccc(Oc2ccc(Br)cc2Br)c(Br)c1
AC50 [5]: 17.8 µM (inconclusive)

COc1ccc(-n2nc([N+](=O)[O-])c(NCCC3=CCCCC3)[n+]2[O-])cc1
EC50 [6]: 0.534 µM (active)
EC50 [8]: > 60 µM (not active)
IC50 (Nonstructural protein 1): 41.3 µM (active)

CC(=NNc1ccc2ccccc2n1)c1ccccc1O
IC50 (Beta-galactosidase): > 66.6 µM (inactive)

CN1CCC23CCCC[C@H]2C1Cc1ccc(O)cc13 (some centres not stated)
AC50 [5]: 2.51 µM (inconclusive)

CC1=C(C(=O)Nc2ccccc2)C(c2ccc(C)cc2)NC(Nc2nc3ccccc3o2)=N1 (configuration not stated)
IC50 (SUMO-activating enzyme [9]): 4.07 µM (active)
EC50 [6]: 0.982 µM (active)
IC50 (SUMO-activating enzyme [10]): 20.2 µM (active)
EC50 [8]: 22.3 µM (active)
CC50 (Vero [11]): > 100 µM (active)

Cn1nnnc1SCC(=O)Nc1ccc(Br)cc1Cl
IC50 [2]: 5.35 µM (active)
IC50 [3]: 9.75 µM (active)

O=C(Nc1ccc(C(F)(F)F)cc1)c1cccn(Cc2ccc3c(c2)OC(F)(F)O3)c1=O
AC50 [12]: 3.68 µM (active)
AC50 [13]: 0.59 µM (active)
AC50 (Cytochrome P450 1A2): 25.1 µM (inconclusive)
AC50 [14]: 22.5 µM (active)
AC50 [15]: 6 µM (active)
IC50 [1]: > 80 µM (inactive)
AC50 [16]: 50.7 µM (active)

CCCCn1c(N)c(C(=S)NC(=O)CC(C)C)c(=O)n(C)c1=O
IC50 (Beta-galactosidase): > 66.6 µM (inactive)

CCN(CC)c1ccc(NC(=O)CN2CCN(CC(=O)Nc3ccccc3OC)CC2)cc1
IC50 (Nonstructural protein 1): 79.6 µM (active)

C=C(C)COc1ccc(-c2[nH]nc(C)c2-c2ccc(OC)c(OC)c2)c(O)c1
AC50 [12]: 1.36 µM (active)
IC50 [1]: 44.6 µM (inactive)

C[C@H]1COC2=C1C(=O)C(=O)c1c2ccc2c1CCCC2(C)C [CRYPTOTANSHINONE]
EC50 [17]: 5.17 µM (active)
CC50 (Vero [18]): 33.4 µM (active)
EC50 (Streptococcus): 14.1 µM (active)
IC50 (Genome polyprotein): 90.1 µM (active)
EC50 (Streptokinase A): 14.8 µM (active)

COc1ccc(-n2nc(C(F)(F)F)cc2-c2ccc(Cl)cc2)cc1 [SC-560]
AC50 (Cytochrome P450 2C9): 25.1 µM (inconclusive)
AC50 (Cytochrome P450 3A4): 39.8 µM (inconclusive)
AC50 [5]: 31.6 µM (inconclusive)

CCOc1ccc2c(c1)nc(SCC(=O)c1ccc(Br)s1)n2C
EC50 [19]: > 79.4 µM (not active)
EC50 [20]: 22.9 µM (not active)
EC50 [21]: > 79.4 µM (inactive)
AC50 (Cytochrome P450 2D6): 12.6 µM (inconclusive)

N#Cc1c2nc3ccccc3nc2n2cc(NC(=O)c3ccc(F)cc3)ccc12
IC50 (SUMO-activating enzyme [9]): 2.96 µM (active)
IC50 [22]: 1.57 µM (active)
IC50 (SUMO-activating enzyme [10]): 1.8 µM (active)
